According to patent US10301304B2, “Selective inhibitor of phosphatidylinositol 3-kinase-gamma” (VERTEX PHARMACEUTICALS INCORPORATED, priority 2013, dated 2019):

Experiments:
CYP3A4 [1] = biological target: T1, CYP3A4 (Homo sapiens, UniProt P08684); assay: Time-dependent inhibition of CYP3A4, IC50 shift assay; assay type: in vitro ADME; parameters: evaluated in human liver microsomes using the IC50 shift assay; from tissue; host or cells: human liver microsomes; conditions: CYP3A4, preincubation 0 and 30 minutes with/without NADPH, human liver microsomes
Method: Time-dependent inhibition of CYP3A4 by Compound 1 also was evaluated in human liver microsomes using the IC50 shift assay. In the study, Compound 1 at 0.1 to 50 μM was preincubated with human liver microsomes in the presence and absence of NADPH for 0 and 30 minutes. Incubations were then diluted 10-fold with buffer and the remaining CYP3A4 (testosterone-6-beta-hydroxylase) activity was measured over a 10 minute period. There was no significant change (IC50 shift=1) in the IC50 of Compound 1 in the presence or absence of NADPH.

Purified human B cells = assay: Human B Cell Proliferation Assay; assay type: cell-based
Description: B cells are highly dependent on PI3Kδ for their development and activity. […] has an essential and non-redundant role in signaling via the B cell receptor (BCR) complex. Both IgM induced Ca+ influx and proliferation are attenuated in mice lacking PI3K-δ or with PI3K-δ inhibitors. PI3K-gamma has no role to play in any B cell activity. The specificity of the BCR complex for the […] to evaluate the extent of […] inhibition in cells. Purified human B cells are stimulated with anti-IgM in the presence of test compounds. Four days later cell viability/proliferation was measured using cell titer-glo to measure the ATP content of the cells in the well. Lack of or reduced proliferation is a measure of the extent of […].

[2] = Permeability in MDCK wild-type cell line; assay type: in vitro ADME, canine; conditions: dog, MDCK-WT
Method: The permeability of Compound 1 was evaluated using both Caco-2 and MadinDarby canine kidney (MDCK) wild-type cell lines. Cells were exposed to drug in buffer on the apical side (measuring permeability in the A-to-B direction) or basolateral side (measuring permeability in the B-to-A direction) and incubated at 37° C. for one hour. Permeability was high in the A-to-B direction in both the MDCK and Caco-2 cell lines (33 and 18×10^−6 cm/sec, respectively).

CYP3A4 [3] = biological target: T1, CYP3A4; assay: Metabolism by Recombinant CYP Enzymes; assay type: in vitro ADME; conditions: 1 μM
Method: (§1) Microsomes that contained recombinant CYP enzymes (CYP1A2, 2B6, 2C8, 2C9, 2C19, 2D6, 2E1 and 3A4) were used to determine which CYP catalyzes the oxidation of Compound 1. Accordingly, Compound 1 (1 μM) was incubated with individual recombinant CYPs in the presence of the cofactor NADPH. The percent parent drug remaining at the end of the incubation period was determined by LC-MS/MS and compared to that present at the beginning.

CYP2B6 = CYP2B6 (Homo sapiens, UniProt P20813); assay: Metabolism by Recombinant CYP Enzymes; assay type: in vitro ADME; conditions: 1 μM, recombinant CYP2B6, NADPH
Method: as §1

CYP2C9 = CYP2C9 (Homo sapiens, UniProt P11712); assay: Metabolism by Recombinant CYP Enzymes; assay type: in vitro ADME; conditions: 1 μM, recombinant CYP2C9, NADPH
Method: as §1

CYP2E1 = CYP2E1 (Homo sapiens, UniProt P05181); assay: Metabolism by Recombinant CYP Enzymes; assay type: in vitro ADME; conditions: 1 μM, recombinant CYP2E1, NADPH
Method: as §1

CYP2C19 = CYP2C19 (Homo sapiens, UniProt P33261); assay: Metabolism by Recombinant CYP Enzymes; assay type: in vitro ADME; conditions: 1 μM, recombinant CYP2C19, NADPH
Method: as §1

CYP2D6 = CYP2D6 (Homo sapiens, UniProt P10635); assay: Metabolism by Recombinant CYP Enzymes; assay type: in vitro ADME; conditions: 1 μM, recombinant CYP2D6, NADPH
Method: as §1

CYP1A2 = CYP1A2 (Homo sapiens, UniProt P05177); assay: Metabolism by Recombinant CYP Enzymes; assay type: in vitro ADME; conditions: 1 μM, recombinant CYP1A2, NADPH
Method: as §1

CYP2C8 = CYP2C8 (Homo sapiens, UniProt P10632); assay: Metabolism by Recombinant CYP Enzymes; assay type: in vitro ADME; conditions: 1 μM, recombinant CYP2C8, NADPH
Method: as §1

[4] = tested on: whole blood neutrophils and monocytes (PI3K-gamma); assay: Whole Blood oxidative burst; assay type: cell-based; conditions: presence of serum, read-out: IC50 Average ± Standard Deviation
Description: (§2) Neutrophils, monocytes and macrophages are key mediators of innate immunity. They release reactive oxygen species (ROS) as part of the innate immune inflammatory response. ROS production is induced by inflammatory mediators like chemokines, bacterial peptides and complement that recruit the innate immune cells to the site of inflammation. These inflammatory mediators trigger activation of PI3K-gamma and initiate a downstream signaling cascade that leads to the assembly of the complete NADPH oxidase complex at the plasma membrane generating ROS. PI3K-gamma functional activity was measured in whole blood and huffy coat neutrophils and monocytes via the generation of ROS. The cells are stimulated with TNF-alpha for 10 minutes, then with bacterial cell wall-derived chemotactic peptide, fMLP, for 20 minutes, and loaded with a non-fluorescent dye […] (DHR). ROS produced by the cells oxidizes DHR to fluorescent rhodamine causing an increase in fluorescent rhodamine content in the cells. PI3K-gamma functional activity is measured by the ability of neutrophils and monocytes to generate ROS following fMLP stimulation. Leukocytes and whole blood samples were analyzed on a BD FACSCalibur™ to quantitate cells positive for fluorescent rhodamine. Buffy coat cells generate IC50S in the absence of serum and whole blood assay generates IC50S in the presence of serum.

[5] = tested on: buffy coat neutrophils and monocytes (PI3K-gamma); assay: Isolated Leukocyte oxidative burst; assay type: cell-based; conditions: absence of serum, read-out: IC50 Average ± Standard Deviation
Description: as §2

T1 sequence (P08684 whole entry): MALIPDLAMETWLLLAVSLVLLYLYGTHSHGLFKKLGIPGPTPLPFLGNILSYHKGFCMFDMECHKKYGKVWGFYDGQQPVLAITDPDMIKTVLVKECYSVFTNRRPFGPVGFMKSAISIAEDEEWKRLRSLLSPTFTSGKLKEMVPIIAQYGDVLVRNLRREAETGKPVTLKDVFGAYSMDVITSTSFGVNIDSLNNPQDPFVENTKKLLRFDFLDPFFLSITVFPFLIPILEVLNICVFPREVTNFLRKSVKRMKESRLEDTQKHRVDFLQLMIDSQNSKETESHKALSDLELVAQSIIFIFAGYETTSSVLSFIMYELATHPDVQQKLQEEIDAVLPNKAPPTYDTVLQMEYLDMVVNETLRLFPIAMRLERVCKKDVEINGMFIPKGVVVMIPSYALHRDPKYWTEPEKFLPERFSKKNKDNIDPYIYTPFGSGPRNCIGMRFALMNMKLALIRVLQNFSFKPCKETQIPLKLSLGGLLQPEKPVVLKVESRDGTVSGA
Sequence of CYP2B6 (P20813 whole entry): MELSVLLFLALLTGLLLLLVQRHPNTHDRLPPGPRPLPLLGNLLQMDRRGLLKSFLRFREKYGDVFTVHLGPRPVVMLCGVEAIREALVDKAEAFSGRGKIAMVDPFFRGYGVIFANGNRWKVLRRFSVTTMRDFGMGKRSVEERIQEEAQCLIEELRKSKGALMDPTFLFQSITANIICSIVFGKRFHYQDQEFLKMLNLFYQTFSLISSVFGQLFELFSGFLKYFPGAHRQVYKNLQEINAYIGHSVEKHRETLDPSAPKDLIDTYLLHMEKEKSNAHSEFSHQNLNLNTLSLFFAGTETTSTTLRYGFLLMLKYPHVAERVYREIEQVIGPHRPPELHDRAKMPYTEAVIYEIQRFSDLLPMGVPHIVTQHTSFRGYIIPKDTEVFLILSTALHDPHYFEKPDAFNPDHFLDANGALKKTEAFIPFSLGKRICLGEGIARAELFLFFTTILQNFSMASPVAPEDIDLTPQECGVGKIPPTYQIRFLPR
Sequence of CYP1A2 (P05177 whole entry): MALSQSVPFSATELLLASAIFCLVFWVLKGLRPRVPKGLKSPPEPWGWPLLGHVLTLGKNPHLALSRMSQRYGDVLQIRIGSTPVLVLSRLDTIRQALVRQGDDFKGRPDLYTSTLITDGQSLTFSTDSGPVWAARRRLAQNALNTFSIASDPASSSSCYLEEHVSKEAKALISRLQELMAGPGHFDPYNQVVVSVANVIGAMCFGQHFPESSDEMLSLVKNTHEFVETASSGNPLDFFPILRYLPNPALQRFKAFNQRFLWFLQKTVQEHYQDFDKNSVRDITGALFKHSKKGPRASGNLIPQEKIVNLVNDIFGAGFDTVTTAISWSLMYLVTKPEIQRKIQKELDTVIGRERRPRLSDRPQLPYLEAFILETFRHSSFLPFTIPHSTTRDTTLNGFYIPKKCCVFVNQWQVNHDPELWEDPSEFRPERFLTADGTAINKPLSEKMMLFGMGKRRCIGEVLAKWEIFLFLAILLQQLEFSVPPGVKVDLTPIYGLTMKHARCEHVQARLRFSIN
Sequence of CYP2C8 (P10632 whole entry): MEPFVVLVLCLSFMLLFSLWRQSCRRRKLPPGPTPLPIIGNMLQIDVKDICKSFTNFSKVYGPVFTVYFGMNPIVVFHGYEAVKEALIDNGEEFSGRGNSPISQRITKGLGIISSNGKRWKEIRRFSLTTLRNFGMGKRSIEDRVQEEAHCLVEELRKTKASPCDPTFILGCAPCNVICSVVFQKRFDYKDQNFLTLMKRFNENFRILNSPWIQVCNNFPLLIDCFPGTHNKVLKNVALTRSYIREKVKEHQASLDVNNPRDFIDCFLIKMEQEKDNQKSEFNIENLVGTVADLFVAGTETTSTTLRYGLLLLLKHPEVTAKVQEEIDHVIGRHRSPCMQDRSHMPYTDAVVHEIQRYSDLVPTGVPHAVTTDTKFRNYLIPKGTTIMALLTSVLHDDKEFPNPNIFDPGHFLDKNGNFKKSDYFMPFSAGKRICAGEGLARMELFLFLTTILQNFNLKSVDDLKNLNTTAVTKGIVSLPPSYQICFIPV
Sequence of CYP2C19 (P33261 whole entry): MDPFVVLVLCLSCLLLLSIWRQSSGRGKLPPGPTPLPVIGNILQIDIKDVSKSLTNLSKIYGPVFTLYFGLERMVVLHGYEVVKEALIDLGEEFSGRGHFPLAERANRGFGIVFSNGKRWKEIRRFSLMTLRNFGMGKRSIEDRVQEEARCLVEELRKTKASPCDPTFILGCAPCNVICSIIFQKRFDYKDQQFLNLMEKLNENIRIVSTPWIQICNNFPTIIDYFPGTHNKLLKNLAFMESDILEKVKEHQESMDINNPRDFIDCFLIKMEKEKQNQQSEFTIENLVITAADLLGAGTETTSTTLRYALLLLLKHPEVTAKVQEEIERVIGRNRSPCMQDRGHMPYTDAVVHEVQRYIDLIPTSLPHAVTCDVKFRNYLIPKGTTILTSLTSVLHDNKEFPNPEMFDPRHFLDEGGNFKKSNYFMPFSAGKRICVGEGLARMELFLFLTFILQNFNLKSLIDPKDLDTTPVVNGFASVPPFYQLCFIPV
Sequence of CYP2D6 (P10635 whole entry): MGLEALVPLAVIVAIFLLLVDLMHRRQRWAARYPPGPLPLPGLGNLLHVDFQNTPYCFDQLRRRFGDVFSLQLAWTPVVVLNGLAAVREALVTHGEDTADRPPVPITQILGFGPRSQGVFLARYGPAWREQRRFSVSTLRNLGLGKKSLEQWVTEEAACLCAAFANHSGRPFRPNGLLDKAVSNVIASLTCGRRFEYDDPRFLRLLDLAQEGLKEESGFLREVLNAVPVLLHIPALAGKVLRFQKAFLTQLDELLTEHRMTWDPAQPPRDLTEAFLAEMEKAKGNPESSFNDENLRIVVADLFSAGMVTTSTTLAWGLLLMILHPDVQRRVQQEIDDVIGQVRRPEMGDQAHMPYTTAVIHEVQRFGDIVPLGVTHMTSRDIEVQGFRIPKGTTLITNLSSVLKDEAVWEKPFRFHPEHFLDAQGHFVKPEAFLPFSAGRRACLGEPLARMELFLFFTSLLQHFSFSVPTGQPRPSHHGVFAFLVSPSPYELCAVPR
Sequence of CYP2C9 (P11712 whole entry): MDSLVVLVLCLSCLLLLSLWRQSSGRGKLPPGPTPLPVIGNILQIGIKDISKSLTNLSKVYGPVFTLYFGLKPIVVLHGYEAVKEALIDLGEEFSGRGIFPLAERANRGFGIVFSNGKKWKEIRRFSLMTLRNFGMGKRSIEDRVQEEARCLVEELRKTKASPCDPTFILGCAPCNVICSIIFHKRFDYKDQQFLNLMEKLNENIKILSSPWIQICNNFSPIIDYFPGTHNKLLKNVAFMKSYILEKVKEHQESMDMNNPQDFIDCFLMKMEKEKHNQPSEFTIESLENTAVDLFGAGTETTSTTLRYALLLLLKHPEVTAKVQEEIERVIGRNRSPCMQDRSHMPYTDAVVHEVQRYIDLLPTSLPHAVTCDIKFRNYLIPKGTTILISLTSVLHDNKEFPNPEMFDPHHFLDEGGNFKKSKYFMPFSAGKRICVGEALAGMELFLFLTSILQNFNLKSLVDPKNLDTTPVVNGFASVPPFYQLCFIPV
Sequence of CYP2E1 (P05181 whole entry): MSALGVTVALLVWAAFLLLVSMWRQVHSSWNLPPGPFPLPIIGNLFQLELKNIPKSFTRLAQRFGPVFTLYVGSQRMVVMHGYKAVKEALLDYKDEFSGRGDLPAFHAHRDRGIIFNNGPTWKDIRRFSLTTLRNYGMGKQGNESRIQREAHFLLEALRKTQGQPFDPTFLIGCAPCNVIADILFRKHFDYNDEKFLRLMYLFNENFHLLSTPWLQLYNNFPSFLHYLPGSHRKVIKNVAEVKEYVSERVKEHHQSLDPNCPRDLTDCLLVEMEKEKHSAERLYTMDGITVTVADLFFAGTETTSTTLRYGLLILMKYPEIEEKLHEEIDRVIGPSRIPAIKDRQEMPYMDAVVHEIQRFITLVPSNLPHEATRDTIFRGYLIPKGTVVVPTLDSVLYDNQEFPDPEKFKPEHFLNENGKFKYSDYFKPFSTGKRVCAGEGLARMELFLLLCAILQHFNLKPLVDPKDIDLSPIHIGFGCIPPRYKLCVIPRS

## Cc1cc(-c2cncc([C@@H](O)C(F)(F)F)c2)nc2c1C(=O)N(c1cnn(CC(F)F)c1)C2(C)C [Compound 1, (R)-6-(1-(2,2-difluoroethyl)-1H-pyrazol-4-yl)-4,7,7-trimethyl-2-(5-(2,2,2-trifluoro-1-hydroxyethyl)pyridin-3-yl)-6,7-dihydro-5H-pyrrolo[3,4-b]pyridin-5-one]
CYP3A4 [1]
  IC50 shift: 1
Purified human B cells; B cell proliferation
  selectivity window over PI3K-δ: 11 fold
Purified human B cells; Homo sapiens, 96 h, B cell/IgM/Proliferation, four days, read-out: IC50 Avg +/− SD
  IC50: 3.05 ± 0.44 µM
Purified human B cells; summary
  selectivity over PI3K-delta in cell based assays: 12 fold
[2]; MDCK, A > B
  Papp A→B at 1 h, 1 μM: 33 ×10⁻⁶ cm/s
  recovery at 1 h, 1 μM: 90%
[2]; MDCK, B > A
  recovery at 1 h, 1 μM: 93%
[2]
  efflux ratio at 1 h, 1 μM: 1.4
[2]; B > A
  Papp B→A at 1 h, 1 μM: 23.8 ×10⁻⁶ cm/s
CYP3A4 [3]; in words
  Metabolism by recombinant CYPs: detected only in the incubation with CYP3A4
CYP3A4 [3]; recombinant CYP3A4, NADPH
  % Parent Remaining @ 30 min: 92%
CYP2B6
  % Parent Remaining @ 30 min: 107%
CYP2C9
  % Parent Remaining @ 30 min: 108%
CYP2E1
  % Parent Remaining @ 30 min: 105%
CYP2C19
  % Parent Remaining @ 30 min: 118%
CYP2D6
  % Parent Remaining @ 30 min: 100%
CYP1A2
  % Parent Remaining @ 30 min: 105%
CYP2C8
  % Parent Remaining @ 30 min: 105%
[4]
  IC50: 570 nM
[5]
  IC50: 220 nM
